The nature of data set [1]: Log P by HPLC on reversed phase columns (EEC directive 79/831 Annex V.A8). Type of data set: physicochemical. The settings on record: reversed phase HPLC columns, method [a]: LC-UV, acidic range, 0.1% formic acid in water and acetonitrile as eluent. On the procedure:
In the above table, measurement of Log P values was performed according to EEC directive 79/831 Annex V.A8 by HPLC (High Performance Liquid Chromatography) on reversed phase columns with the following methods: • [^a] Log P value is determined by measurement of LC-UV, in an acidic range, with 0.1% formic acid in water and acetonitrile as eluent (linear gradient from 10% acetonitrile to 95% acetonitrile). • [^b] Log P value is determined by measurement of LC-UV, in a neutral range, with 0.001 molar ammonium acetate solution in water and acetonitrile as eluent (linear gradient from 10% acetonitrile to 95% acetonitrile). • [^c] Log P value is determined by measurement of LC-UV, in an acidic range, with 0.1% phosphoric acid and acetonitrile as eluent (linear gradient from 10% acetonitrile to 95% acetonitrile).
If more than one Log P value is available within the same method, all the values are given and separated by “+”.
Calibration was done with straight-chain alkan2-ones (with 3 to 16 carbon atoms) with known Log P values (measurement of Log P values using retention times with linear interpolation between successive alkanones). Lambda-max-values were determined using UV-spectra from 200 nm to 400 nm and the peak values of the chromatographic signals.

Data set [2] deals with Colletotrichum lindemuthianum. Description: Colletotrichum lindemuthianum in vitro cell test. Type of data set: cell-based. The settings on record: 144 h, 20 ppm of active ingredient, 6 days incubation, read-out: efficacy (direct activity, inhibition of fungal growth). As to the method: Solvent: DMSO Culture medium: 14.6 g anhydrous D-glucose (VWR), 7.1 g Mycological Peptone (Oxoid), 1.4 g granulated Yeast Extract (Merck), QSP 1 liter Inoculum: spores suspension Fungicides were solubilized in DMSO and the solution used to prepare the required range of concentrations. The final concentration of DMSO used in the assay was ≤1%. A spore suspension of C. lindemuthianum was prepared and diluted to the desired spore density. Fungicides were evaluated for their ability to inhibit spores germination and mycelium growth in liquid culture assay. The compounds were added in the desired concentration to the culture medium with spores. After 6 days incubation, fungi-toxicity of compounds was determined by spectrometric measurement of mycelium growth. Inhibition of fungal growth was determined by comparing the absorbance values in wells containing the fungicides with the absorbance in control wells without fungicides.

Data set [3] deals with Xanthomonas campestris pv. campestris. Description: In vivo preventive test on Xanthomonas campestris pv. campestris (black rot on cabbage). The settings on record: Xanthomonas campestris; 31 ppm of active ingredient; cabbage; evaluated 8 or 10 days after inoculation; read-out: efficacy. As to the method: (§1) The tested active ingredients were prepared by homogenization in a mixture of acetone/Dimethyl sulfoxide/Tween®, and then diluted with water to obtain the desired active material concentration.
(§2) The young plants of cabbage were treated by spraying the active ingredient prepared as described above. Control plants were treated only with an aqueous solution of acetone/Dimethyl sulfoxide/Tween®.
After 72 hours, the plants were contaminated by spraying the leaves with an aqueous bacteria suspension of Xanthomonas campestris pv. campestris. The contaminated cabbage plants were incubated for 8 or 10 days at 27° C. at 95% relative humidity.
The test was evaluated 8 or 10 days after the inoculation. 0% means an efficacy which corresponds to that of the control plants while an efficacy of 100% means that no disease was observed.
Compound CMP1 was tested in an in vivo preventive test on Xanthomonas campestris pv. campestris (black rot on cabbage) in the same conditions as described in Example F.

A further data set deals with Uromyces appendiculatus. Nature of the data set: In vivo preventive test on Uromyces appendiculatus (bean rust). The following applies: Uromyces appendiculatus, 240 h, bean, evaluated 10 days after inoculation, read-out: efficacy. On the procedure:
as §1
The young plants of bean were treated by spraying the active ingredient prepared as described above.
Control plants were treated only with an aqueous solution of acetone/Dimethyl sulfoxide/Tween®.
After 72 hours, the plants were contaminated by spraying the leaves with an aqueous suspension of Uromyces appendiculatus spores. The contaminated bean plants were incubated for 24 hours at 20° C. and at 100% relative humidity and then for 9 days at 20° C. and at 70-80% relative humidity.
The test was evaluated 10 days after the inoculation. 0% means an efficacy which corresponds to that of the control plants while an efficacy of 100% means that no disease was observed.
Compound CMP1 was tested in an in vivo preventive test on Uromyces appendiculatus (bean rust) in the same conditions as described in Example G.

The next data set relates to Peronospora parasitica. Nature of the data set: In vivo preventive test on Peronospora parasitica (crucifer downy mildew). The following applies: Hyaloperonospora parasitica, 120 h; 125 ppm of active ingredient; cabbage; evaluated 5 days after inoculation; read-out: efficacy. As to the method: as §1, §2
After 72 hours, the plants were contaminated by spraying the leaves with an aqueous suspension of Peronospora parasitica spores. The contaminated cabbage plants were incubated for 5 days at 20° C. and at 100% relative humidity.
The test was evaluated 5 days after the inoculation. 0% means an efficacy which corresponds to that of the control plants while an efficacy of 100% means that no disease was observed.

The test system of data set [4] is Colletotrichum lindemuthianum. Description: In vivo preventive test on Colletotrichum lindemuthianum (Antrachnose on bean). The settings on record: Colletotrichum lindemuthianum, 144 h, bean, evaluated 6 days after inoculation, read-out: efficacy. On the procedure:
The tested active ingredients were prepared by homogenization in a mixture of acetone/Dimethyl sulfoxide/Tween®, and then diluted with water to obtain the desired active material concentration. The young plants of bean were treated by spraying the active ingredient prepared as described above. Control plants were treated only with an aqueous solution of acetone/Dimethyl sulfoxide/Tween®.
After 72 hours, the plants were contaminated by spraying the leaves with an aqueous suspension of Colletotrichum lindemuthianum spores. The contaminated bean plants were incubated for 24 hours at 20° C. and at 100% relative humidity and then for 5 days at 20° C. and at 90% relative humidity.
The test was evaluated 6 days after the inoculation. 0% means an efficacy which corresponds to that of the control plants while an efficacy of 100% means that no disease was observed.
Compound CMP1 was tested in an in vivo preventive test on Colletotrichum lindemuthianum (Antrachnose on bean) in the same conditions as described in Example D.

Data set [5] relates to Xanthomonas campestris pv. campestris. Description: Xanthomonas campestris pv. campestris in vitro cell test. Type of data set: cell-based. The following applies: 20 ppm of active ingredient, 24 h incubation, read-out: efficacy (direct activity, inhibition of bacteria growth). As to the method:
Solvent: DMSO Culture medium: LB broth medium (Luria Broth Miller) Sigma Inoculum: bacteria suspension Compounds were solubilized in DMSO and the solution used to prepare the required range of concentrations. The final concentration of DMSO used in the assay was ≤1%. Inoculum was prepared from a pre-culture of bacteria grown in liquid medium and diluted to the desired optical density (OD). Compounds were evaluated for their ability to inhibit bacteria growth in liquid culture assay. The compounds were added in the desired concentrations to culture medium containing the bacteria suspension. After 24 h of incubation, the efficacy of compounds was determined by spectrometric measurement of bacteria growth. Inhibition was determined by comparing the absorbance values in wells containing the compounds with the absorbance in control wells without active ingredients.

Data set [6] has as its system salicylate responsive promoter sequence of the PR1 (pathogenesis-related protein I) gene (AT2G14610). Description: Induction of defense gene expression in Arabidopsis thaliana (PR1 promoter-GFP reporter plants). Type of data set: in vivo. The settings on record: 72 h, 3rd day after spraying, mock treated leaves set as 1.00, read-out: relative fluorescence value. As to the method: Arabidopsis thaliana reporter plants containing the coding sequence of a green fluorescent protein (GFP) linked to the salicylate responsive promoter sequence of the PR1 (pathogenesis-related protein I) gene (AT2G14610) were grown for five days and then sprayed with compounds. On the 3rd day after spraying, plant fluorescence was assessed with a MacroFluo instrument from Leica Microsystems (Wetzlar, Germany). Fluorescences were quantified with the Meta-Morph Microscopy Automation & Image Analysis Software (Molecular Devices, Sunnyvale, Calif., United States).
Background fluorescence in mock treated leaves was set as 1.00.

This note sets out measurements from US12492196B2, “Thienyloxazolones and analogues” (Bayer Aktiengesellschaft, priority 2019, dated 2025).

Structures are written as SMILES.

`O=C1OC(c2sc(Cl)c(Br)c2Cl)=NC12CC2` [I.09]: the chromatographic logP in data set [1] is 4.01. Also, the inhibition at 20 ppm in data set [2] and in data set [5] was at most 30% each time. Besides, the pest or weed control at 31 ppm fell in the range of 70 to 79% in data set [3], 90 to 100% in the data set on Uromyces appendiculatus (31 ppm of active ingredient) and 70 to 79% in data set [4] (31 ppm of active ingredient). Besides, the pest or weed control at 125 ppm with Uromyces appendiculatus (125 ppm of active ingredient) and with Peronospora parasitica was 90 to 100% throughout. The pest or weed control at 500 ppm (with Uromyces appendiculatus (500 ppm of active ingredient); in data set [4] (500 ppm of active ingredient)) was 90 to 100% throughout. For the same compound, in data set [6] (75 ppm of compound), the fold induction at 75 ppm was above 2. Further, the fold induction at 300 ppm in data set [6] (300 ppm) was above 2.

In general, chromatographic logP refers to lipophilicity estimated from chromatographic retention. A higher chromatographic logP goes with higher lipophilicity. By inhibition is commonly meant the drop in the measured response relative to a control, in per cent.
